Laboratory results reported in ChEMBL document CHEMBL1649545, “Efficacy of triazoles in a murine disseminated infection by Candida krusei” (2009).
≈ marks a conversion by molar mass, not a printed value. Calls of active or inactive are those of the source. The calls are words filed in the database; no cut-off is given here.

Key:
[1] = tested on: Pichia kudriavzevii; test: Antifungal activity against Candida krusei FMR9729 infected OF1 mouse disseminated infection model assessed as reduction in spleen tissue fungal burden at 50 mg/kg/day, po for 5 days administered 24 hrs postinfection measured after 24 hrs post treatment relative to control; format: functional, organism-based
[2] = tested on: Pichia kudriavzevii; test: Antifungal activity against 5 x 10^7 CFU Candida krusei FMR9729 infected OF1 mouse disseminated infection model assessed as prolongation of mouse survival at 50 mg/kg/day, po for 5 days administered 24 hrs postinfection measured daily for 15 days; format: functional, organism-based
[3] = tested on: Pichia kudriavzevii; test: Antifungal activity against Candida krusei FMR9729 infected OF1 mouse disseminated infection model assessed as reduction in kidney tissue fungal burden at 100 mg/kg/day, po for 5 days administered 24 hrs postinfection measured after 24 hrs post treatment relative to control; format: functional, organism-based
[4] = tested on: Pichia kudriavzevii; test: Antifungal activity against Candida krusei FMR9728 by M27-A2 broth dilution method; format: functional
[5] = tested on: Pichia kudriavzevii; test: Antifungal activity against Candida krusei FMR9728 infected OF1 mouse disseminated infection model assessed as reduction in kidney tissue fungal burden at 100 mg/kg/day, po for 5 days administered 24 hrs postinfection measured after 24 hrs post treatment relative to control; format: functional, organism-based
[6] = tested on: Pichia kudriavzevii; test: Antifungal activity against Candida krusei FMR9728 infected OF1 mouse disseminated infection model assessed as reduction in kidney tissue fungal burden at 50 mg/kg/day, po for 5 days administered 24 hrs postinfection measured after 24 hrs post treatment relative to control; format: functional, organism-based
[7] = tested on: Pichia kudriavzevii; test: Antifungal activity against 5 x 10^7 CFU Candida krusei FMR9728 infected OF1 mouse disseminated infection model assessed as prolongation of mouse survival at 100 mg/kg/day, po for 5 days administered 24 hrs postinfection measured daily for 15 days; format: functional, organism-based
[8] = tested on: Pichia kudriavzevii; test: Antifungal activity against Candida krusei FMR9729 infected OF1 mouse disseminated infection model assessed as reduction in spleen tissue fungal burden at 100 mg/kg/day, po for 5 days administered 24 hrs postinfection measured after 24 hrs post treatment relative to control; format: functional, organism-based
[9] = tested on: Pichia kudriavzevii; test: Antifungal activity against Candida krusei FMR9728 infected OF1 mouse disseminated infection model assessed as reduction in spleen tissue fungal burden at 50 mg/kg/day, po for 5 days administered 24 hrs postinfection measured after 24 hrs post treatment relative to control; format: functional, organism-based
[10] = tested on: Pichia kudriavzevii; test: Antifungal activity against 5 x 10^7 CFU Candida krusei FMR9729 infected OF1 mouse disseminated infection model assessed as prolongation of mouse survival at 100 mg/kg/day, po for 5 days administered 24 hrs postinfection measured daily for 15 days; format: functional, organism-based
[11] = tested on: Pichia kudriavzevii; test: Antifungal activity against Candida krusei FMR9729 by M27-A2 broth dilution method; format: functional
[12] = tested on: Pichia kudriavzevii; test: Antifungal activity against 5 x 10^7 CFU Candida krusei FMR9728 infected OF1 mouse disseminated infection model assessed as prolongation of mouse survival at 50 mg/kg/day, po for 5 days administered 24 hrs postinfection measured daily for 15 days; format: functional, organism-based
[13] = tested on: Pichia kudriavzevii; test: Antifungal activity against Candida krusei FMR9728 infected OF1 mouse disseminated infection model assessed as reduction in spleen tissue fungal burden at 100 mg/kg/day, po for 5 days administered 24 hrs postinfection measured after 24 hrs post treatment relative to control; format: functional, organism-based
[14] = tested on: Pichia kudriavzevii; test: Antifungal activity against Candida krusei FMR9729 infected OF1 mouse disseminated infection model assessed as reduction in kidney tissue fungal burden at 50 mg/kg/day, po for 5 days administered 24 hrs postinfection measured after 24 hrs post treatment relative to control; format: functional, organism-based
[15] = tested on: Pichia kudriavzevii; test: Antifungal activity against Candida krusei FMR9728 infected OF1 mouse disseminated infection model assessed as reduction in kidney tissue fungal burden at 20 mg/kg/day, iv for 5 days administered 24 hrs postinfection measured after 24 hrs post treatment relative to control; format: functional, organism-based
[16] = tested on: Pichia kudriavzevii; test: Antifungal activity against 5 x 10^7 CFU Candida krusei FMR9728 infected OF1 mouse disseminated infection model assessed as prolongation of mouse survival at 60 mg/kg/day, po for 5 days administered 24 hrs postinfection measured daily for 15 days; format: functional, organism-based
[17] = tested on: Pichia kudriavzevii; test: Antifungal activity against Candida krusei FMR9729 infected OF1 mouse disseminated infection model assessed as reduction in kidney tissue fungal burden at 20 mg/kg/day, iv for 5 days administered 24 hrs postinfection measured after 24 hrs post treatment relative to control; format: functional, organism-based
[18] = tested on: Pichia kudriavzevii; test: Antifungal activity against Candida krusei FMR9728 infected OF1 mouse disseminated infection model assessed as reduction in spleen tissue fungal burden at 20 mg/kg/day, iv for 5 days administered 24 hrs postinfection measured after 24 hrs post treatment relative to control; format: functional, organism-based
[19] = tested on: Pichia kudriavzevii; test: Antifungal activity against Candida krusei FMR9729 infected OF1 mouse disseminated infection model assessed as reduction in kidney tissue fungal burden at 10 mg/kg/day, iv for 5 days administered 24 hrs postinfection measured after 24 hrs post treatment relative to control; format: functional, organism-based
[20] = tested on: Pichia kudriavzevii; test: Antifungal activity against Candida krusei FMR9729 infected OF1 mouse disseminated infection model assessed as reduction in spleen tissue fungal burden at 20 mg/kg/day, iv for 5 days administered 24 hrs postinfection measured after 24 hrs post treatment relative to control; format: functional, organism-based
[21] = tested on: Pichia kudriavzevii; test: Antifungal activity against 5 x 10^7 CFU Candida krusei FMR9729 infected OF1 mouse disseminated infection model assessed as prolongation of mouse survival at 20 mg/kg/day, iv for 5 days administered 24 hrs postinfection measured daily for 15 days; format: functional, organism-based
[22] = tested on: Pichia kudriavzevii; test: Antifungal activity against Candida krusei FMR9728 infected OF1 mouse disseminated infection model assessed as reduction in spleen tissue fungal burden at 60 mg/kg/day, po for 5 days administered 24 hrs postinfection measured after 24 hrs post treatment relative to control; format: functional, organism-based
[23] = tested on: Pichia kudriavzevii; test: Antifungal activity against 5 x 10^7 CFU Candida krusei FMR9729 infected OF1 mouse disseminated infection model assessed as prolongation of mouse survival at 60 mg/kg/day, po for 5 days administered 24 hrs postinfection measured daily for 15 days; format: functional, organism-based
[24] = tested on: Pichia kudriavzevii; test: Antifungal activity against Candida krusei FMR9729 infected OF1 mouse disseminated infection model assessed as reduction in spleen tissue fungal burden at 10 mg/kg/day, iv for 5 days administered 24 hrs postinfection measured after 24 hrs post treatment relative to control; format: functional, organism-based
[25] = tested on: Pichia kudriavzevii; test: Antifungal activity against Candida krusei FMR9729 infected OF1 mouse disseminated infection model assessed as reduction in spleen tissue fungal burden at 40 mg/kg/day, po for 5 days administered 24 hrs postinfection measured after 24 hrs post treatment relative to control; format: functional, organism-based
[26] = tested on: Pichia kudriavzevii; test: Antifungal activity against Candida krusei FMR9729 infected OF1 mouse disseminated infection model assessed as reduction in kidney tissue fungal burden at 60 mg/kg/day, po for 5 days administered 24 hrs postinfection measured after 24 hrs post treatment relative to control; format: functional, organism-based
[27] = tested on: Pichia kudriavzevii; test: Antifungal activity against 5 x 10^7 CFU Candida krusei FMR9728 infected OF1 mouse disseminated infection model assessed as prolongation of mouse survival at 10 mg/kg/day, iv for 5 days administered 24 hrs postinfection measured daily for 15 days; format: functional, organism-based
[28] = tested on: Pichia kudriavzevii; test: Antifungal activity against Candida krusei FMR9728 infected OF1 mouse disseminated infection model assessed as reduction in kidney tissue fungal burden at 40 mg/kg/day, po for 5 days administered 24 hrs postinfection measured after 24 hrs post treatment relative to control; format: functional, organism-based
[29] = tested on: Pichia kudriavzevii; test: Antifungal activity against 5 x 10^7 CFU Candida krusei FMR9728 infected OF1 mouse disseminated infection model assessed as prolongation of mouse survival at 40 mg/kg/day, po for 5 days administered 24 hrs postinfection measured daily for 15 days; format: functional, organism-based
[30] = tested on: Pichia kudriavzevii; test: Antifungal activity against Candida krusei FMR9729 infected OF1 mouse disseminated infection model assessed as reduction in spleen tissue fungal burden at 60 mg/kg/day, po for 5 days administered 24 hrs postinfection measured after 24 hrs post treatment relative to control; format: functional, organism-based
[31] = tested on: Pichia kudriavzevii; test: Antifungal activity against Candida krusei FMR9728 infected OF1 mouse disseminated infection model assessed as reduction in spleen tissue fungal burden at 40 mg/kg/day, po for 5 days administered 24 hrs postinfection measured after 24 hrs post treatment relative to control; format: functional, organism-based
[32] = tested on: Pichia kudriavzevii; test: Antifungal activity against 5 x 10^7 CFU Candida krusei FMR9729 infected OF1 mouse disseminated infection model assessed as prolongation of mouse survival at 40 mg/kg/day, po for 5 days administered 24 hrs postinfection measured daily for 15 days; format: functional, organism-based
[33] = tested on: Pichia kudriavzevii; test: Antifungal activity against Candida krusei FMR9728 infected OF1 mouse disseminated infection model assessed as reduction in kidney tissue fungal burden at 60 mg/kg/day, po for 5 days administered 24 hrs postinfection measured after 24 hrs post treatment relative to control; format: functional, organism-based
[34] = tested on: Pichia kudriavzevii; test: Antifungal activity against Candida krusei FMR9728 infected OF1 mouse disseminated infection model assessed as reduction in kidney tissue fungal burden at 10 mg/kg/day, iv for 5 days administered 24 hrs postinfection measured after 24 hrs post treatment relative to control; format: functional, organism-based
[35] = tested on: Pichia kudriavzevii; test: Antifungal activity against 5 x 10^7 CFU Candida krusei FMR9729 infected OF1 mouse disseminated infection model assessed as prolongation of mouse survival at 10 mg/kg/day, iv for 5 days administered 24 hrs postinfection measured daily for 15 days; format: functional, organism-based
[36] = tested on: Pichia kudriavzevii; test: Antifungal activity against Candida krusei FMR9728 infected OF1 mouse disseminated infection model assessed as reduction in spleen tissue fungal burden at 10 mg/kg/day, iv for 5 days administered 24 hrs postinfection measured after 24 hrs post treatment relative to control; format: functional, organism-based
[37] = tested on: Pichia kudriavzevii; test: Antifungal activity against Candida krusei FMR9729 infected OF1 mouse disseminated infection model assessed as reduction in kidney tissue fungal burden at 40 mg/kg/day, po for 5 days administered 24 hrs postinfection measured after 24 hrs post treatment relative to control; format: functional, organism-based
[38] = tested on: Pichia kudriavzevii; test: Antifungal activity against 5 x 10^7 CFU Candida krusei FMR9728 infected OF1 mouse disseminated infection model assessed as prolongation of mouse survival at 20 mg/kg/day, iv for 5 days administered 24 hrs postinfection measured daily for 15 days; format: functional, organism-based

In the case of `CC[C@@H]([C@H](C)O)n1ncn(-c2ccc(N3CCN(c4ccc(OC[C@@H]5CO[C@@](Cn6cncn6)(c6ccc(F)cc6F)C5)cc4)CC3)cc2)c1=O` [POSACONAZOLE], the Activity [1] is reported as “Active”, the Activity [2] is reported as “Active” and the Activity [3] is reported as “Active”. For the same compound, the MFC [4] was 1 µg/mL (≈ 1.43 µM), the MIC50 [4] was 0.125 µg/mL (≈ 0.178 µM) and the Activity [5] was “Active”. For the same compound, the Activity [6] was “Active”, the Activity [7] was “Active” and the Activity [8] was “Active”. For the same compound, the Activity [9] was “Active”, the Activity [10] was “Active” and the MFC [11] was 2 µg/mL (≈ 2.85 µM). The MIC50 [11] was 0.25 µg/mL (≈ 0.357 µM), the Activity [12] was “Active” and the Activity [13] was “Active”. The Activity [14] was “Active”.
In the case of `C[C@@H](c1ncncc1F)[C@](O)(Cn1cncn1)c1ccc(F)cc1F` [VORICONAZOLE], the Activity [15] is reported as “inactive”, the Activity [16] is reported as “Active” and the Activity [17] is reported as “inactive”. The Activity [18] was “inactive”, the Activity [19] was “inactive” and the MFC [4] was 16 µg/mL (≈ 45.8 µM). The MIC50 [4] was 0.125 µg/mL (≈ 0.358 µM), the Activity [20] was “inactive” and the Activity [21] was “Active”. For the same compound, the Activity [22] was “Active”, the Activity [23] was “Active” and the Activity [24] was “inactive”. For the same compound, the Activity [25] was “inactive”, the Activity [26] was “Active” and the Activity [27] was “Active”. For the same compound, the Activity [28] was “Active”, the Activity [29] was “Active” and the Activity [30] was “Active”. The Activity [31] was “Active”, the Activity [32] was “Active” and the Activity [33] was “Active”. For the same compound, the MFC [11] was greater than 16 µg/mL, the MIC50 [11] was 0.25 µg/mL (≈ 0.716 µM) and the Activity [34] was “inactive”. The Activity [35] was “Active”, the Activity [36] was “inactive” and the Activity [37] was “inactive”. The Activity [38] was “Active”.
